Test results: patent publication US20100113453A1, “Sublingual Formulations of D-Cycloserine and Methods of Using Same” (priority 2007, published 2010)
Where two headings read alike, the source gives them in different places.

How the values were obtained:
[1] = sub-antimicrobial dose, cited from earlier work
[2] = typical doses for the treatment of tuberculosis (500-1000 mg/day), chronic dosing; cited from earlier work
[3] = system: Mycobacterium tuberculosis strains; details: typical Mycobacterium tuberculosis strains; cited from earlier work
[4] = Absorption into the blood following sublingual versus oral administration of D-cycloserine; assay type: in vivo, Sprague-Dawley rats; details: rat; for concentration at 0 min / concentration at 10 min / concentration at 20 min / concentration at 40 min / concentration at 80 min: male, Sprague-Dawley, plasma, 15 mg/kg, read-out: DCS plasma level; for concentration at 0 min: 0 minutes (baseline before DCS administration); for concentration at 10 min: 10 minutes elapsed; for concentration at 20 min: 20 minutes elapsed; for concentration at 40 min: 40 minutes elapsed; for concentration at 80 min: 80 minutes elapsed
Description: Subjects: 18 male, Sprague-Dawley rats (Charles River, Raleigh N.C.).
Procedure: The rats were implanted with intravenous catheters using the methods of Thrivikraman et al., (“Jugular vein catheterization for repeated blood sampling in the unrestrained conscious rat” (2002) Brain Res. Brain Res. Protoc., 10(2), p. 84-94). Following two days of recovery, rats were lightly anesthetized with isofluorothane and given DCS either sublingually (n=10) or orally (n=8). D-cycloserine was dissolved in saline and given at a volume of 75 μL/rat sublingually and (after dilution by a factor of two) 150 μL/rat when administered orally (concentration of 15 mg/kg). Aliquots of 0.5-1.0 mL blood samples were collected: at baseline before DCS administration; and subsequently at 10, 20, 40, and 80 minutes after DCS administration. Blood samples were injected into pre-heparinized tubes and immediately placed on ice. Because the assays required at least 1 mL of plasma, samples from two rats given the same treatment and sampled at the same time were combined so that there were 25 samples from the sublingual group (10 rats/2×5 samples) and 20 samples from the oral group (8 rats/2×5 samples). Plasma was separated by centrifugation at 770 g for 10 minutes, placed in polypropylene tubes, frozen at −80° C., then shipped on dry ice to an outside laboratory to assay DCS levels. […] At the dosages studied, the resulting DCS plasma levels were near the lower detection limits of the assay.

[5] = cited from earlier work

NC1CONC1=O (stereo not drawn) [DCS, 4-amino-1,2-oxazolidin-3-one]
peak serum concentrations ([1]; child subject, less than or equal to 2 mg/kg): less than or equal to 5 μg/mL | peak serum concentrations ([1]; less than or equal to 2 mg/kg and greater than about 0.2 mg/kg): less than or equal to 5 μg/mL | side effects in treated subjects [2]: significant neurological side effects | minimum inhibitory concentrations (MIC) in vitro [3]: 6 to 25 µg/mL | concentration at 0 min ([4]; other: sublingual, sublingual): 0 ng/mL | concentration at 10 min ([4]; other: sublingual, sublingual): 900 ng/mL | concentration at 20 min ([4]; other: sublingual, sublingual): 1600 ng/mL | concentration at 40 min ([4]; other: sublingual, sublingual): 4700 ng/mL | concentration at 80 min ([4]; other: sublingual, sublingual): 5200 ng/mL | concentration at 0 min ([4]; oral): 0 ng/mL | concentration at 10 min ([4]; oral): 1600 ng/mL | concentration at 20 min ([4]; oral): 2300 ng/mL | concentration at 40 min ([4]; oral): 5400 ng/mL | concentration at 80 min ([4]; oral): 5400 ng/mL | blood plasma concentrations after sublingual administration relative to oral administration ([4]; sublingual versus oral): comparable to those achieved by oral administration | serum concentrations generally maintained ([5]; dose of 500 mg/day, chronic treatment): 25000 to 30000 ng/mL | half-life ([5]; known oral tablets, primarily renal excretion): 10 h | time of peak serum concentrations after dosing ([5]; known oral tablets): 3 to 8 h
